# Measured values from ChEMBL document CHEMBL4732042, “Studies on the affinity of 6-[(n-(cyclo)aminoalkyl)oxy]-4H-chromen-4-ones for sigma 1/2 receptors” (RSC Med Chem, 2021).
# Assays:
# [1] = biological target: T1, Sigma intracellular receptor 2 (Rattus norvegicus, UniProt Q5U3Y7); assay: Displacement of (+)-[3H]DTG from sigma 2 receptor in SPRD rat liver membrane incubated for 2 hrs by liquid scintillation counting method; type: cell membranes
# T1 sequence (Q5U3Y7 whole entry): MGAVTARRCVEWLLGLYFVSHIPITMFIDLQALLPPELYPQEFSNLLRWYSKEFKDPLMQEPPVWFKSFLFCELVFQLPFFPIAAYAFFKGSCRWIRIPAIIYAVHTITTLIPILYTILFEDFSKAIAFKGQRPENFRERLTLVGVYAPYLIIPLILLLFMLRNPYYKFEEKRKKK
# [2] = biological target: Sigma non-opioid intracellular receptor 1 (Homo sapiens, UniProt Q99720); assay: Displacement of [3H]pentazocine from human sigma 1 receptor expressed in HEK293 cell membrane incubated for 2 hrs by liquid scintillation counting method; type: cell membranes
# [3] = biological target: T2, MAO-B (amine oxidase [flavin-containing] B) (Homo sapiens, UniProt P27338); assay: Inhibition of human MAO-B assessed as residual activity at 10 uM; settings: read-out: Activity
# T2 sequence (P27338 whole entry): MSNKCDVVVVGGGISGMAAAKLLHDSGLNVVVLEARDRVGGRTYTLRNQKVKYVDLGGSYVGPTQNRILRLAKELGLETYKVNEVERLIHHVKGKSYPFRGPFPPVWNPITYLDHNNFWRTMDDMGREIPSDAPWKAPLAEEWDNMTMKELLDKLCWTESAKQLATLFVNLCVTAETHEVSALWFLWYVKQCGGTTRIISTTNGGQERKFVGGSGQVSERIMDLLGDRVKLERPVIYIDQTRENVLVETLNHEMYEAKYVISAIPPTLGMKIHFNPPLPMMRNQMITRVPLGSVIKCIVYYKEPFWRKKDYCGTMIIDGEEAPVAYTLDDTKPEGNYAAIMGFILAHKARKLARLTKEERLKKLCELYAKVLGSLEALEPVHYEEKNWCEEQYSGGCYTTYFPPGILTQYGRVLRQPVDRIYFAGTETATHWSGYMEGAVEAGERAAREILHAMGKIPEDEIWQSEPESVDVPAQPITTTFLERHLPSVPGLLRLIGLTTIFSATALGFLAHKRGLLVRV
# [4] = biological target: T3, Amine oxidase [flavin-containing] B (Homo sapiens, UniProt P27338); assay: Inhibition of human MAO-B
# T3 sequence (P27338 whole entry): T2 sequence (P27338 whole entry)
# Acetylcholinesterase = Acetylcholinesterase (Homo sapiens, UniProt P22303); assay: Inhibition of human AChE
# Cholinesterase = Cholinesterase (Homo sapiens, UniProt P06276); assay: Inhibition of human BuChE
# Cholinesterase, sequence (P06276 whole entry): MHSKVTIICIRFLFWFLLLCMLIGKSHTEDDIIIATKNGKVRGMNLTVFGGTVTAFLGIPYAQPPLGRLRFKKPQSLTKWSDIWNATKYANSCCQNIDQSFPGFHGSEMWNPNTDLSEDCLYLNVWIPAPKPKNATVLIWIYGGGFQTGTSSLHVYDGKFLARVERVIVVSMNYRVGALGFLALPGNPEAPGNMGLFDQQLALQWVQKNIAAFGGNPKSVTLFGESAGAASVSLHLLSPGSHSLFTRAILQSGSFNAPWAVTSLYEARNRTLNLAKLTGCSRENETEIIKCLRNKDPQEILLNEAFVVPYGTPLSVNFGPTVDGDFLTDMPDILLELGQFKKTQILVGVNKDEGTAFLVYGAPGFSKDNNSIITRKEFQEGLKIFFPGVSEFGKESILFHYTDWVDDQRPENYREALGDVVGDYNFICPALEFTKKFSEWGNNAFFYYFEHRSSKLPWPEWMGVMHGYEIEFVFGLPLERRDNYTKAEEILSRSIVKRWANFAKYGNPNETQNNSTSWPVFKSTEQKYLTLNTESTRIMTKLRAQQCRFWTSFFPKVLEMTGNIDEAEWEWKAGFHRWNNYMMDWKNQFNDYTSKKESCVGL
# Sigma non-opioid intracellular receptor 1, sequence (Q99720 whole entry): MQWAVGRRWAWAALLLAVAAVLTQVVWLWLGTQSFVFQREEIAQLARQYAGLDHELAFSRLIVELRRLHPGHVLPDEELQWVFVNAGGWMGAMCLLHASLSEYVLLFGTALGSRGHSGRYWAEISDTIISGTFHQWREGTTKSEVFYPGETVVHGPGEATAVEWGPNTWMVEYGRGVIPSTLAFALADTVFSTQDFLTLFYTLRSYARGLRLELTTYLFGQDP
# Acetylcholinesterase, sequence (P22303 whole entry): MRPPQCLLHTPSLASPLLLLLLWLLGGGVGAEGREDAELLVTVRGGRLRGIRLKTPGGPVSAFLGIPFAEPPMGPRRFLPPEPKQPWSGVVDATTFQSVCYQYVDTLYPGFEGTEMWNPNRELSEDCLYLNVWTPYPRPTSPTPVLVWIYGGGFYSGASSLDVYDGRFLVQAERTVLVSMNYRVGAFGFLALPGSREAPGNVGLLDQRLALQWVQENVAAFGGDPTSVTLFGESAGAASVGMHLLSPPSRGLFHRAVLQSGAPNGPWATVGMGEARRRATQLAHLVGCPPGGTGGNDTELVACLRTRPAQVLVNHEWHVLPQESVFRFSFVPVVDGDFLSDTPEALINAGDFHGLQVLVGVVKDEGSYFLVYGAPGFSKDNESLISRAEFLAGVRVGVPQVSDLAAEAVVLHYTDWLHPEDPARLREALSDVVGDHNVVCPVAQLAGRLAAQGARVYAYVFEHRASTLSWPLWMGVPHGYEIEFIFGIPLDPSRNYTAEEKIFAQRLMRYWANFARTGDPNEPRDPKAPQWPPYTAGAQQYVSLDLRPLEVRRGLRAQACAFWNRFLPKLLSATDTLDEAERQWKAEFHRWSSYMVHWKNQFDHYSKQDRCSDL
smiles,measurement,setting,value
O=c1ccoc2ccc(OCCN3CCOCC3)cc12,Ki,[1],> 10 µM
CN1CCN(CCCCCOc2ccc3occc(=O)c3c2)CC1,Ki,[1],4.1 µM
same,Ki,[2],0.0825 µM
O=c1ccoc2ccc(OCCCCN3CCOCC3)cc12,Ki,[1],14.6 µM
same,Ki,[2],0.0239 µM
O=c1ccoc2ccc(OCCCN3CCCCCC3)cc12,activity at 10 µM,[3],54%
same,Ki,[1],0.75 µM
same,Ki,[2],0.0272 µM
CN1CCN(CCCOc2ccc3occc(=O)c3c2)CC1,Ki,[1],17.1 µM
same,Ki,[2],0.809 µM
O=c1ccoc2ccc(OCCCN3CCCC3)cc12,Ki,[1],23.9 µM
same,Ki,[2],0.499 µM
CCN(CC)CCCCCOc1ccc2occc(=O)c2c1,Ki,[1],2.5 µM
same,Ki,[2],0.218 µM
O=c1ccoc2ccc(OCCCCN3CCCCC3)cc12,IC50,[4]; read-out: IC50,7.2 µM
same,IC50,Acetylcholinesterase,5.58 µM
same,Ki,[1],1.97 µM
same,IC50,Cholinesterase,87.5 µM
same,Ki,[2],0.309 µM
O=c1ccoc2ccc(OCCCN3CCCCC3)cc12,IC50,[4],Not Active
same,Ki,[1],2.89 µM
same,Ki,[2],0.0655 µM
O=c1ccoc2ccc(OCCN3CCCC3)cc12,Ki,[1],12.5 µM
same,Ki,[2],2.87 µM
O=c1ccoc2ccc(OCCCCCN3CCCC3)cc12,IC50,[4],Not Active
same,Ki,[1],1.45 µM
same,Ki,[2],0.087 µM
CN1CCN(CCOc2ccc3occc(=O)c3c2)CC1,Ki,[1],14.2 µM
same,Ki,[2],0.604 µM
O=c1ccoc2ccc(OCCCN3CCOCC3)cc12,IC50,[4]; read-out: IC50,1.18 µM
same,Ki,[1],22.5 µM
same,Ki,[2],0.245 µM
O=c1ccoc2ccc(OCCCCCN3CCCCC3)cc12,Ki,[1],0.49 µM
same,Ki,[2],0.213 µM
O=c1ccoc2ccc(OCCCCN3CCCC3)cc12,Ki,[1],3.11 µM
same,Ki,[2],0.227 µM
O=c1ccoc2ccc(OCCCCCN3CCOCC3)cc12,activity at 10 µM,[3],58%
same,Ki,[1],2.63 µM
same,IC50,Cholinesterase,> 100 µM
same,Ki,[2],0.0196 µM
C[C@@H]1CCCN1CCCCCOc1ccc2occc(=O)c2c1,Ki,[1],0.583 µM
same,Ki,[2],0.134 µM
O=c1ccoc2ccc(OCCN3CCCCCC3)cc12,Ki,[1],1.62 µM
same,Ki,[2],0.113 µM
O=c1ccoc2ccc(OCCN3CCCCC3)cc12,Ki,[1],9.07 µM
same,Ki,[2],0.825 µM
CCN(CC)CCOc1ccc2occc(=O)c2c1,Ki,[1],30 µM
same,Ki,[2],12.1 µM
CCN(CC)CCCOc1ccc2occc(=O)c2c1,Ki,[1],8.36 µM
same,Ki,[2],1.22 µM
C[C@@H]1CCCN1CCCCOc1ccc2occc(=O)c2c1,Ki,[1],1.09 µM
same,Ki,[2],0.104 µM
